{"source": "patent US11827624B2", "about": "“Covalent immune recruiter compounds for immune cell recognition and associated uses” (McMaster University, priority 2020, dated 2023)", "test_system": "PSMA+HEK cells", "assay": "Two-colour flow cytometry ADCP (CD64) assay with mmAb on PSMA+HEK cells", "assay_type": "cell-based, human", "from_the_text": "ADCP flow cytometry experiments were run on a BD LSRII Flow Cytometer. The human IgG isotype control used was purchased from Jackson ImmunoResearch (009-000-003). The human IgG1 monoclonal anti-DNP antibody (mAb) was purchased from acrobiosystems (DNP-M2). PSMA expression was confirmed with an anti-PSMA antibody Alexa 647 conjugate (Novus Biologicals, Catalog #FAB4234R). For PSMA competition controls, PMPA was purchased from Sigma (SML1612). Hek-293T (PSMA+/−) cell lines were generously given by Dr. Cyril Barinka (Institute of Biotechnology CAS, Czech Republic). U937 cells were generously given by Dr. John Valliant (McMaster University, Canada). LNCaP cells were generously given by Dr. Karen Mossman (McMaster University, Canada). IFN-γ was purchased from Fischer Scientific (PHC4031). Ultra low IgG FBS was purchased from Fischer Scientific (A3381901). RPMI-1640 was purchased as a powder from Fischer Scientific (31800089) and resuspended. DMEM was purchased as a powder from Fischer Scientific (12800082) and resuspended. […]\nFor preparation of effector monocytes, 24 hours prior to inducing phagocytosis U937 monocytes were seeded at 500,000 cells/mL and activated with IFN-γ ([…]). After incubation, these cells were then counted and washed twice with serum free assay media (neat RPMI). […] These cells were then counted and washed twice with serum free assay media (neat RPMI). […]", "data": [{"compound": "O=C(O)CC[C@H](NC(=O)N[C@@H](CCCCNC(=O)NCCOCCOCCOCCOCCOCCOCCOCCOC(=O)n1cnc(CCNC(=O)CNc2ccc([N+](=O)[O-])cc2[N+](=O)[O-])c1)C(=O)O)C(=O)O", "note": "[CIR 3]", "values": [{"measurement": "CD64 based target immune recognition (phagocytosis)", "result": "only provided a functional enhancement relative to ARM 11 at low antibody concentrations"}]}]}
